What all share (test): relative viability (nuclei count vs DMSO), 5 days (fraction); higher = more cells survive
Compound in test [1]: C1=CC=C(C(=C1)C2=CC=C(C=C2)C3=CSC4=C3C(=C(C(=O)N4)C#N)O)O + CCNC(=O)c1noc(-c2cc(C(C)C)c(O)cc2O)c1-c1ccc(CN2CCOCC2)cc1 [Luminespib] (partner 0.01 µM)
The essentials: (§1)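 Lung cancer cell lines in 1536-well plates got either a single drug or a fixed anchor-drug dose together with five library-drug doses (not always all listed) in √10 steps, by pin tool, on the day after seeding. Nuclei were counted after 5 days, and relative viability is the treated-to-vehicle ratio of nuclei counts. Values are medians of duplicate plates.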

Compound in test [2]: O=C(CCCCCCNC(=O)c1cnc(N(c2ccccc2)c2ccccc2)nc1)NO [Ricolinostat] + Nc1nc2[nH]cc(CCc3ccc(C(=O)N[C@@H](CCC(=O)O)C(=O)O)cc3)c2c(=O)[nH]1 [Pemetrexed] (partner 0.2 µM)
The essentials: as §1

Compound in test [3]: O=C(CCCCCCNC(=O)c1cnc(N(c2ccccc2)c2ccccc2)nc1)NO [Ricolinostat] + CC1(C)CCC(c2ccc(Cl)cc2)=C(CN2CCN(c3ccc(C(=O)NS(=O)(=O)c4ccc(N[C@H](CCN5CCOCC5)CSc5ccccc5)c(S(=O)(=O)C(F)(F)F)c4)cc3)CC2)C1 [Navitoclax] (partner 0.5 µM)
The essentials: as §1

Compound in test [4]: O=C(CCCCCCNC(=O)c1cnc(N(c2ccccc2)c2ccccc2)nc1)NO [Ricolinostat] + CC(C)C[C@H](NC(=O)[C@H](Cc1ccccc1)NC(=O)c1cnccn1)B(O)O [Bortezomib] (partner 0.002 µM)
The essentials:
as §1

Compound in the test “TGX 221 + AZD7762”: CC1=CN2C(=O)C=C(N=C2C(=C1)C(C)NC3=CC=CC=C3)N4CCOCC4 [TGX 221] + NC(=O)Nc1cc(-c2cccc(F)c2)sc1C(=O)N[C@H]1CCCNC1 [AZD7762] (partner 0.2 µM)
The essentials: as §1

Turning to NCI-H1792, the relative viability in test [1] (first compound 0.253 µM) stood at 0.576; in test [1] (first compound 0.8 µM), 0.641; in test [1] (first compound 2.53 µM), 0.473; in test [1] (first compound 8 µM), 0.288; in test [2] (first compound 0.253 µM) it was 0.92; in test [2] (first compound 0.8 µM), 0.59. Also, the relative viability in test [2] (first compound 2.53 µM) stood at 0.415; in test [3] (first compound 0.08 µM) it was 0.438; in test [3] (first compound 0.253 µM), 0.632; in test [3] (first compound 0.8 µM), 0.518; in test [3] (first compound 2.53 µM), 0.654; in test [4] (first compound 0.08 µM), 0.899. Also, the relative viability in test [4] (first compound 0.253 µM) came to 0.926; in test [4] (first compound 0.8 µM) it was 0.944; in test [4] (first compound 2.53 µM) it was 0.973; in the test with TGX 221 + AZD7762 (first compound 0.08 µM), 0.625; with TGX 221 + AZD7762 (first compound 0.253 µM) it was 0.625; with TGX 221 + AZD7762 (first compound 0.8 µM), 0.602. Further, the relative viability turned out to be 0.556 with TGX 221 + AZD7762 (first compound 2.53 µM) and 0.418 in the test with TGX 221 + AZD7762 (first compound 8 µM).

For the origin of these results see the supplement of paper PMC10307832.
